Where two headings read alike, the source gives them in different places.
Columns and labels:
[1] = test system: 8E51 Cells permanently infected with LAV (Lymphotropic Adenopathy Virus) and MOLT3 cells; assay: Antiviral activity: syncytia formation inhibition (8E51 cells infected with LAV co-incubated with MOLT3 cells); assay type: cell-based; conditions: Homo sapiens, MOLT-3
Experimental: The antiviral activity of the compound of the invention was evaluated by the test of the syncytia formation inhibition, according to the procedure reported hereinbelow.
8E51 Cells permanently infected with LAV (Lymphotropic Adenopathy Virus) defective of the po1 gene, and MOLT3 cells (CD4+ human T-lymphoblastoid strain), cultured in RPMI 1640 medium with 10% calf fetal serum were co-incubated in a ratio of 1:2, at a concentration of 10^6 cells/ml, and put in 96-conic shaped bottom wells Microtiter plates. The cells were added with some compounds representative of the invention suitably diluted and, after 30 minutes at 37° C., the whole was centrifuged to obtain a sediment. The […] was incubated for further 2 hours at 37° C., then put in square-bottomed wells. The syncytia (10-100 times bigger than the starting cells) were counted with an optic microscope. In the controls about 100-200 syncytia/well could be seen.

[2] = test system: human TNF (Tumor Necrosis Factor) citotoxicity on LM cells (murine fibroblast strain); assay: In vitro anti-inflammatory activity: inhibition of the citotoxicity induced by human TNF on a murine fibroblast strain (LM cells, MTT); assay type: cell-based; conditions: Mus musculus; for inhibition at 10 µg/mL: compound 10 μg/ml; for inhibition at 100 µg/mL: compound 100 μg/ml
Experimental: In vitro anti-inflammatory activity
In a 96-square bottomed wells plate 15.000 LM cells (Rubin. B. Y. et al., J.Exp. Med., 162:1099, 1985) were inseminated each well (100 μl) in complete RPMI medium (Flow Lab., Hertz. GB). Each well was added with 50 μl of a solution of a compound to be tested at the due concentration, and 50 μl of a solution of TNF at the due concentration. After 2 days, each well was added with 40 μl of a solution of MTT [3-(4,5-dimethylthiazol-2-yl)-2,5-diphenyltetrazolium bromide], and the whole was incubated at 37° C. for 4 hours, then the content of the wells was sucked up, added with 200 μl/well of dimethylsulfoxide to dissolve the blue crystals of formazane formed because of the cell activity, then the optical density values were read by a reader with a 570 nm filter. […] The optical density values are directly proportional to the inhibitory activity performed by the compounds of the invention against TNF.

[3] = test system: Carrageenan-induced oedema; assay: Carrageenan-induced oedema (acute inflammation); assay type: in vivo; conditions: oral; for % of inhibition (reduction of the oedema), 1 hour: 1 hour after carrageenan; for % of inhibition (reduction of the oedema), 3 hours: 3 hours after carrageenan; for % of inhibition (reduction of the oedema), 5 hours: 5 hours after carrageenan
Experimental: In vivo anti-inflammatory activity: models of acute inflammation
A. Carrageenan-induced oedema The test is disclosed, inter alia, by Blake, D. R. et al., Ann. Rheum. Dis., 43, 89-93, 1983. The animals were orally administered with 10 or 30 mg/kg doses of the compounds of the invention 1 hour before the injection of carrageenan. The condition of the oedema was checked 1, 3 and 5 hours after said injection. In Table 3 the percentage of reduction of the oedema is set forth.

[4] = TNF 1 ng/ml, read-out: % of inhibition, TNF (1 ng/ml)
[5] = TNF 5 ng/ml, read-out: % of inhibition, TNF (5 ng/ml)

CCCCN(CCCC)CCCC(C)OC(=O)OC(C)CCCN(CCCC)CCCC (stereo not drawn) [10, C]]
inhibition at 25 µM [1]: 29.5% | inhibition at 50 µM [1]: 45.5% | inhibition at 10 µg/mL [2, 4]: 100% | inhibition at 100 µg/mL [2, 4]: 100% | inhibition at 10 µg/mL [2, 5]: 73% | inhibition at 100 µg/mL [2, 5]: 95% | % of inhibition (reduction of the oedema), 1 hour ([3]; 10 mg/kg): 26.1% | % of inhibition (reduction of the oedema), 3 hours ([3]; 10 mg/kg): 10% | % of inhibition (reduction of the oedema), 1 hour ([3]; 30 mg/kg): 13% | % of inhibition (reduction of the oedema), 3 hours ([3]; 30 mg/kg): 43% | % of inhibition (reduction of the oedema), 5 hours ([3]; 30 mg/kg): 31.3%

CCCCN(CCCC)[C@@H]1CCCC[C@H]1OC(=O)OCC1CCCN(C)C1 (stereo partly drawn) [5, C]]
inhibition at 50 µM [1]: 22% | inhibition at 100 µM [1]: 23% | inhibition at 10 µg/mL [2, 4]: 73% | inhibition at 100 µg/mL [2, 4]: 36% | inhibition at 10 µg/mL [2, 5]: 21% | inhibition at 100 µg/mL [2, 5]: 30%

CCCCN(CCCC)[C@@H]1CCCC[C@H]1OC(=O)OCc1cccnc1 (relative stereo) [4, C]]
inhibition at 50 µM [1]: 18% | inhibition at 100 µM [1]: 28% | inhibition at 100 µg/mL [2, 4]: 23%

CCCCN(CCCC)CCC(C)OC(=O)OC(C)CCN(CCCC)CCCC (stereo not drawn) [8, D]]
inhibition at 12.5 µM ([1]; 12.5 μM): 33% | inhibition at 25 µM [1]: 49% | inhibition at 50 µM [1]: 55% | inhibition at 100 µM [1]: 27% | inhibition at 10 µg/mL [2, 4]: 100% | inhibition at 100 µg/mL [2, 4]: 100% | inhibition at 10 µg/mL [2, 5]: 56% | inhibition at 100 µg/mL [2, 5]: 82%

CCCCN(CCCC)CCCOC(=O)OC(C)CCCN(CCCC)CCCC (stereo not drawn) [12, B]]
inhibition at 10 µg/mL [2, 4]: 68% | inhibition at 100 µg/mL [2, 4]: 65% | inhibition at 10 µg/mL [2, 5]: 50% | inhibition at 100 µg/mL [2, 5]: 62%

O=C(OCCCN(Cc1ccccc1)Cc1ccccc1)OCCCN(Cc1ccccc1)Cc1ccccc1 [17, D]]
inhibition at 100 µM [1]: 19%

CCCCN(CCCC)CCCCCOC(=O)OCCCCCN(CCCC)CCCC [14, E]]
inhibition at 100 µg/mL [2, 4]: 100% | inhibition at 100 µg/mL [2, 5]: 59%

CCN(CC)CCCCCCOC(=O)OCCCCCCN(CC)CC [13, E]]
inhibition at 50 µM [1]: 27.5% | inhibition at 100 µM [1]: 43.5% | inhibition at 10 µg/mL [2, 4]: 55% | inhibition at 100 µg/mL [2, 4]: 45% | inhibition at 100 µg/mL [2, 5]: 21%

CCCCN(CCCC)CCCC(CC)OC(=O)OC(CC)CCCN(CCCC)CCCC (stereo not drawn) [38, E]]
% of inhibition (reduction of the oedema), 1 hour ([3]; 10 mg/kg): 22.5% | % of inhibition (reduction of the oedema), 3 hours ([3]; 10 mg/kg): 15% | % of inhibition (reduction of the oedema), 5 hours ([3]; 10 mg/kg): 20.5%

CN(CCCOC(=O)OCCCN(C)Cc1ccccc1)Cc1ccccc1 [16, D]]
inhibition at 100 µM [1]: 27% | inhibition at 100 µg/mL [2, 5]: 21%

CCCCN1CCC(COC(=O)OCC2CCN(CCCC)CC2)CC1 [1, E]]
inhibition at 25 µM [1]: 56.5% | inhibition at 50 µM [1]: 70% | inhibition at 100 µM [1]: 79% | inhibition at 200 µM ([1]; 200 μM): 97% | inhibition at 10 µg/mL [2, 4]: 45%

CC(C)N(CCCCOC(=O)OCCCCN(C(C)C)C(C)C)C(C)C [18, D]]
inhibition at 50 µM [1]: 55% | inhibition at 100 µM [1]: 63% | inhibition at 100 µg/mL [2, 4]: 17% | % of inhibition (reduction of the oedema), 3 hours ([3]; 30 mg/kg): 27% | % of inhibition (reduction of the oedema), 5 hours ([3]; 30 mg/kg): 28.7%

CCCCN(CCCC)CCCOC(=O)OCCCN(CCCC)CCCC [19, D]]
inhibition at 10 µg/mL [2, 4]: 17% | inhibition at 100 µg/mL [2, 4]: 48%
